The values that follow come from patent US20070185060A1, “Boronic acid thrombin inhibitors” (TRIGEN LIMITED, priority 2004, published 2007).

Data set [1] is described as follows: Solubility of TRI 50c monosodium salt at different pH values. The class given is physicochemical. The protocol:
It may be desirable to make aqueous solutions of boronic acid drugs for administering them. […] However, a solution with a pH of 9.5 may be unacceptable or undesirable. Accordingly, a pharmaceutically acceptable organic acid may be included in the particulate formulation in an amount selected to reduce the pH to a value at which the solution is more acceptable but at which a solution of drinkable quantity (e.g. about 50 ml to about 150 ml) may be formed by reconstituting the particulate formulation. As the organic acid may be mentioned citric acid, tartaric acid or malic acid, for example. In many instances, citric acid is chosen.
In a first series of experiments, this amount of the salt was dissolved in 50 ml water to form a solution of approximately pH 9.5. Dilute aqueous HCl was added to determine how much the pH could be reduced before precipitation occurred.
In a second series of experiments, the same amount of the salt was dissolved in 150 ml water, and citric acid was added. […] Since acid solutions tend to be more palatable than alkaline ones, and citric acid is a common flavouring agent, this behaviour of the salt is highly beneficial. […] In general, it is contemplated that the boronate will be formulated to form a reconstituted solution having a pH of from 4 to 8, e.g. 4 to 7, optionally 5 to 6.

Data set [2] is described as follows: Stability under conditions of HPLC purity determination. The following applies: sample preparation for HPLC. The class given is physicochemical.
The next data set concerns the target thrombin (Homo sapiens, UniProt P00734). The data set is described as follows: Thrombin inhibition, chromogenic substrate (Method A). The class given is biochemical. The procedure:
50 μl thrombin (33.3 ng/ml in assay buffer) and 20 μl vehicle or compound solution were added to 110 μl assay buffer (100 mM Na orthophosphate (80% Na2HPO4 and 20% NaH2PO4), 200 mM NaCl, 0.5% PEG 6000, 0.02% Na azide, pH 7.5) and incubated for 5 minutes at 37° C.

The target in another data set is Plasmin (Homo sapiens, UniProt P00747). In words: Plasmin inhibition, chromogenic substrate (Method B). The class given is biochemical. The protocol: 50 μl Plasmin (75 ng/ml in assay buffer) and 20 μl vehicle or compound solution were added to 110 μl assay buffer (100 mM Na orthophosphate (80% Na2HPO4 and 20% NaH2PO4), 200 mM NaCl, 0.5% PEG 6000, 0.02% Na azide, pH 7.5) and incubated for 5 minutes at 37° C.

For data set [3], the system named is T1, Trypsin.
T1 construct: IC50; other: Trypsin; Ki
In words: Trypsin inhibition, chromogenic substrate (Method C). The class given is biochemical. The following applies: Trypsin. The protocol:
(§1) 50 μl Trypsin (20 ng/ml in assay buffer) and 20 μl vehicle or compound solution were added to 110 μl assay buffer (100 mM Na orthophosphate (80% Na2HPO4 and 20% NaH2PO4), 200 mM NaCl, 0.5% PEG 6000, 0.02% Na azide, pH 7.5) and incubated for 5 minutes at 37° C.

Data set [4] concerns Trypsin. The description is as above. The note with it: Trypsin versus thrombin. The class given is biochemical. The protocol: as §1

What is called IC50 is the midpoint of a concentration-inhibition curve. Read a high IC50 as lower potency. As usually defined, the Ki is the equilibrium dissociation constant of an inhibitor or competing ligand from its target.

Where only a bound is given, the exact number is not on record here.

Plasmin, sequence (P00747 581-810 limits assumed, species assumed): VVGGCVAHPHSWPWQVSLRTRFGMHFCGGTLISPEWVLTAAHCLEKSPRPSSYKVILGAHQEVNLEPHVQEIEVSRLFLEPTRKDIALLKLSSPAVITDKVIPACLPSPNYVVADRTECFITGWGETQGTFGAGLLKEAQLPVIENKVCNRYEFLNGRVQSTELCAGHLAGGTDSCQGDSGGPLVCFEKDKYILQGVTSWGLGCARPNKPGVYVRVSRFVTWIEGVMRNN
Plasmin, sequence (P00747 97-580 partner limits assumed, species assumed): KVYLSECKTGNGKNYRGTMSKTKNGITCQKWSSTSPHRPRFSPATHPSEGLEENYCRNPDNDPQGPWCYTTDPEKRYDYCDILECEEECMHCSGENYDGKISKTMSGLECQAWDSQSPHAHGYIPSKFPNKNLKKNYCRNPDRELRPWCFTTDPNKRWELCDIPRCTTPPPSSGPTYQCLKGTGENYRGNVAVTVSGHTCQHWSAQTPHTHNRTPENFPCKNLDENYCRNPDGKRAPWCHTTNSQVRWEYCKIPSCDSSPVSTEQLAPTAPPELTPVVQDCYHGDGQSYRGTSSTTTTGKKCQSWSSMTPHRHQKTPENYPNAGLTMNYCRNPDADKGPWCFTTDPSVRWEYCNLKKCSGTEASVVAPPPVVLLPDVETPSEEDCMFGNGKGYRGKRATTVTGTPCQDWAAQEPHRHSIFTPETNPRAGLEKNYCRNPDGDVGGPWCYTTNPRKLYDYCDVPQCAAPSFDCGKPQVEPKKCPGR

As for `COCCC[C@H](NC(=O)[C@@H]1CCCN1C(=O)[C@@H](Cc1ccccc1)NC(=O)OCc1ccccc1)B(O)O.[Na+]` [TRI 50c monosodium salt, Cbz-(R)-Phe-(S)-Pro-(R)-Mpg-B(OH)2 monosodium salt], the “concentration of boronate salt solution that can be formed” value in data set [1] (aqueous solution at a pH of about 9.5) is on record as “about 600 mg/ml”. Moreover, the “pH below which the salt tended to precipitate” value in data set [1] (salt equivalent to 600 mg TRI 50c in 50 ml water, dilute aqueous HCl added) is reported as “below 9”. Moreover, the “pH to which solution could be reduced before precipitation occurred” value in data set [1] (salt equivalent to 600 mg TRI 50c in 150 ml water, citric acid added) was 3.7-3.8.
`COCCCC(NC(=O)C1CCCN1C(=O)C(Cc1ccccc1)NC(=O)OCc1ccccc1)B1OCCNCCO1` (stereo not drawn) [TRI 50d]: in data set [2], the “stability under HPLC purity determination conditions” value was “not stable”.
As for `COCCC[C@H](NC(=O)[C@@H]1CCCN1C(=O)[C@@H](Cc1ccc(F)cc1)NC(=O)OCc1ccccc1)B(O)O` [TRI 50f, Cbz-4-F-Phe-Pro-boroMpg-OH], the IC50 against thrombin is < 0.1 µM; at Plasmin (Plasmin), > 100 µM; in the data set with Trypsin [3], > 10 µM. The Ki on thrombin was < 0.075 µM; at Plasmin (Plasmin), > 100 µM; at Trypsin [3], > 5 µM. Moreover, the Selectivity at Plasmin (Plasmin versus thrombin) is given as >1000; in the data set with Trypsin [4], >100.
